The values that follow come from patent US12122778B2, “Activating pyruvate kinase R” (Novo Nordisk Health Care AG, priority 2018, dated 2024).

The target of assay [1] is PKR(G332S) (Homo sapiens, UniProt P30613, G332S). As to the kind of experiment: Luminescence Biochemical Assay (Kinase Glo Plus), PKR G332S mutant. To be noted: with FBP; for activation at 1.54 µM: 1.54 μM compound, read-out: AC50 LUM KGP FBP % Fold@1.54 μM mean; for AC50: read-out: AC50 LUM KGP FBP AC50 μM gmean (column A); for Emax: read-out: AC50 LUM KGP FBP MAX % FOLD mean. A general note: In Kinase-Glo more light means more ATP remaining.
Chain of PKR(G332S) (P30613 whole entry G332S): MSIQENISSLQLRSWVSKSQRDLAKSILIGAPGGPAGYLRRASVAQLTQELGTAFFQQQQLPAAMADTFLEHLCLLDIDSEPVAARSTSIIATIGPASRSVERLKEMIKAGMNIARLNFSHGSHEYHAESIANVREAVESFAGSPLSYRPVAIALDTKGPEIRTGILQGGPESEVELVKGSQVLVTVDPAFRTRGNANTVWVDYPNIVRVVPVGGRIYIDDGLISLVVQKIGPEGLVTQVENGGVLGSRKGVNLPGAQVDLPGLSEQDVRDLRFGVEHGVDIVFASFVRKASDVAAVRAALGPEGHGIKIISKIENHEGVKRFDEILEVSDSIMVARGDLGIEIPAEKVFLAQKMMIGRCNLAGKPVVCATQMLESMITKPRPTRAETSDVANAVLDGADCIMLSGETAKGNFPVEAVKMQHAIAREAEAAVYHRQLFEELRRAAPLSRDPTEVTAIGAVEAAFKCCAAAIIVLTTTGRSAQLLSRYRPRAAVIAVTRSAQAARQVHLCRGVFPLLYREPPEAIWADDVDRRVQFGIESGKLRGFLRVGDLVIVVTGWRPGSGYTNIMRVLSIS

In assay [2] the target is PKR(R510Q) (Homo sapiens, UniProt P30613, R510Q). As to the kind of experiment: Luminescence Biochemical Assay (Kinase Glo Plus), PKR R510Q mutant. Particulars: without FBP; for activation at 1.54 µM: 1.54 μM compound, read-out: AC50 LUM KGP woFBP % Fold@1.54 μM mean; for AC50: read-out: AC50 LUM KGP woFBP AC50 μM gmean; for Emax: read-out: AC50 LUM KGP woFBP MAX % FOLD mean.
Chain of PKR(R510Q) (P30613 whole entry R510Q): as the sequence (P30613 whole entry G332S) above, with S332G, R510Q counted along it

Assay [3] addresses PKR(wt) (Homo sapiens, UniProt P30613). Kind of assay: Luminescence Biochemical Assay (Kinase Glo Plus), wild type PKR. Particulars: without FBP; for activation at 1.54 µM: 1.54 μM compound, read-out: AC50 LUM KGP woFBP % Fold@1.54 μM mean; for AC50: read-out: AC50 LUM KGP woFBP AC50 μM gmean; for Emax: read-out: AC50 LUM KGP woFBP MAX % FOLD mean.

Bounds are passed on as bounds.

Chain of PKR(wt) (P30613 whole entry): as the sequence (P30613 whole entry G332S) above, with S332G counted along it

Broadly, the AC50 is the concentration giving half of the maximal activity seen. Turning to `CC(=O)Nc1cc(S(=O)(=O)N2CC3=C(CN(C(=O)[C@H](O)c4ccccc4)C3)C2)ccc1F` [Example 14-1, (R)—N-(2-fluoro-5-((5-(2-hydroxy-2-phenylacetyl)-3,4,5,6-tetrahydropyrrolo[3,4-c]pyrrol-2(1H)-yl)sulfonyl)phenyl)acetamide], in assay [1], the activation at 1.54 µM was 75 to 250%, the half-maximal activity concentration (AC50) lay in the range of 1 to 40 µM and the Emax lay in the range of 75 to 250%. Moreover, in assay [2], the activation at 1.54 µM fell in the range of 75 to 250%, the half-maximal activity concentration (AC50) is 1 to 40 µM and the Emax lay within 75 to 250%. In assay [3], the activation at 1.54 µM was 75 to 250%, the AC50 was 1 to 40 µM and the Emax lay in the range of 75 to 250%.
`O=C([C@H](O)c1ccc2c(c1)NCCO2)N1CC2=C(C1)CN(S(=O)(=O)c1ccc(OC(F)F)cc1)C2` (single isomer, unassigned) [Example 9-4]: in assay [1], the activation at 1.54 µM lay within 75 to 250%, the concentration at half-maximal activity (AC50) fell in the range of 0.1 to 1 µM and the Emax lay in the range of 75 to 250%. For the same compound, in assay [2], the activation at 1.54 µM is 75 to 250%, the concentration at half-maximal activity (AC50) was 1 to 40 µM and the Emax was 250 to 500%. In assay [3], the activation at 1.54 µM is 75 to 250%, the concentration at half-maximal activity (AC50) fell in the range of 1 to 40 µM and the Emax fell in the range of 250 to 500%.
For `O=C(OCC1CC1)N1CC2=C(C1)CN(S(=O)(=O)c1ccc(OC(F)F)cc1)C2` [Example 22-2, Cyclopropylmethyl 5-[4-(difluoromethoxy)benzenesulfonyl]-1H,2H,3H,4H,5H,6H-pyrrolo[3,4-c]pyrrole-2-carboxylate], in assay [1], the activation at 1.54 µM fell in the range of 75 to 250%, the AC50 is 1 to 40 µM and the Emax fell in the range of 75 to 250%. Moreover, in assay [2], the activation at 1.54 µM was 75 to 250%, the AC50 lay within 1 to 40 µM and the Emax is 250 to 500%. Also, in assay [3], the activation at 1.54 µM is 75 to 250%, the concentration at half-maximal activity (AC50) lay in the range of 1 to 40 µM and the Emax lay within 250 to 500%.
`O=C([C@@H](O)c1ccc2c(c1)NCCO2)N1CC2=C(C1)CN(S(=O)(=O)c1ccc(OC(F)F)cc1)C2` (single isomer, unassigned) [Example 9-5]: the activation at 1.54 µM in assay [1] was in the range of 75 to 250%; in assay [2], 250 to 50000%; in assay [3] it was 250 to 50000%. Further, the half-maximal activity concentration (AC50) in assay [1], in assay [2] and in assay [3] was at most 0.1 µM throughout. The Emax lay in the range of 75 to 250% in assay [1], 250 to 500% in assay [2] and 250 to 500% in assay [3].
With `CC(=O)Nc1ccc(S(=O)(=O)N2CC3=C(CN(C(=O)[C@H](O)c4ccccc4)C3)C2)cc1` [Example 18-56, N-[4-({5-[(2R)-2-hydroxy-2-phenylacetyl]-1H,2H,3H,4H,5H,6H-pyrrolo[3,4-c]pyrrol-2-yl}sulfonyl)phenyl]acetamide], the activation at 1.54 µM in assay [1], in assay [2] and in assay [3] was 75 to 250% each time. The AC50 in assay [1], in assay [2] and in assay [3] was 1 to 40 µM each time. The Emax in assay [1] was in the range of 75 to 250%; in assay [2], 250 to 500%; in assay [3], 75 to 250%.
With `O=C([C@H](O)c1ccccc1)N1CC2=C(C1)CN(S(=O)(=O)c1ccccn1)C2` [Example 9-2, (2R)-2-hydroxy-2-phenyl-1-[5-(pyridine-2-sulfonyl)-1H,2H,3H,4H,5H,6H-pyrrolo[3,4-c]pyrrol-2-yl]ethan-1-one], in assay [1], the activation at 1.54 µM was in the range of 75 to 250%, the AC50 fell in the range of 0.1 to 1 µM and the Emax is 75 to 250%. In assay [2], the activation at 1.54 µM was 75 to 250%, the AC50 was in the range of 0.1 to 1 µM and the Emax lay within 250 to 500%. Besides, in assay [3], the activation at 1.54 µM lay in the range of 75 to 250% and the Emax lay in the range of 75 to 250%.
Take `O=C(Cn1cnnn1)N1CC2=C(C1)CN(S(=O)(=O)c1ccc(OC(F)F)cc1)C2` [Example 18-19, 1-(5-((4-(difluoromethoxy)phenyl)sulfonyl)-3,4,5,6-tetrahydropyrrolo[3,4-c]pyrrol-2(1H)-yl)-2-(1H-tetrazol-1-yl)ethan-1-one]: in assay [1], the activation at 1.54 µM fell in the range of 75 to 250%, the AC50 was at most 0.1 µM and the Emax lay in the range of 75 to 250%. In addition, in assay [2], the activation at 1.54 µM lay within 250 to 50000%, the half-maximal activity concentration (AC50) was 0.1 to 1 µM and the Emax was in the range of 250 to 500%. In assay [3], the activation at 1.54 µM is 250 to 50000%, the AC50 lay within 0.1 to 1 µM and the Emax is 250 to 500%.
For the compound `O=C(Cc1ccc(F)cc1F)N1CC2=C(C1)CN(S(=O)(=O)c1cccnc1)C2` [Example 18-66, 2-(2,4-Difluorophenyl)-1-[5-(pyridine-3-sulfonyl)-1H,2H,3H,4H,5H,6H-pyrrolo[3,4-c]pyrrol-2-yl]ethan-1-one], in assay [1], the activation at 1.54 µM lay in the range of 75 to 250%, the half-maximal activity concentration (AC50) was 1 to 40 µM and the Emax lay in the range of 75 to 250%. Further, in assay [2], the activation at 1.54 µM was in the range of 75 to 250%, the AC50 is 1 to 40 µM and the Emax was in the range of 250 to 500%. In assay [3], the activation at 1.54 µM was in the range of 75 to 250%, the half-maximal activity concentration (AC50) lay in the range of 1 to 40 µM and the Emax fell in the range of 250 to 500%.
Consider `CC[C@@H](O)C(=O)N1CC2=C(C1)CN(S(=O)(=O)c1ccc3c(c1)N(C)CCO3)C2` [Example 18-76, (2R)-2-hydroxy-1-{5-[(4-methyl-3,4-dihydro-2H-1,4-benzoxazin-6-yl)sulfonyl]-1H,2H,3H,4H,5H,6H-pyrrolo[3,4-c]pyrrol-2-yl}butan-1-one], for which, in assay [1], the activation at 1.54 µM lay in the range of 75 to 250%, the AC50 is 1 to 40 µM and the Emax lay within 75 to 250%. Moreover, in assay [2], the activation at 1.54 µM lay in the range of 75 to 250%, the AC50 lay within 1 to 40 µM and the Emax is 75 to 250%. In assay [3], the activation at 1.54 µM was 75 to 250%, the AC50 lay in the range of 0.1 to 1 µM and the Emax was in the range of 75 to 250%.
As to `COc1cc(Cl)ccc1S(=O)(=O)N1CC2=C(CN(C(=O)[C@H](O)c3ccccc3)C2)C1` [Example 18-58, (2R)-1-[5-(4-chloro-2-methoxybenzenesulfonyl)-1H,2H,3H,4H,5H,6H-pyrrolo[3,4-c]pyrrol-2-yl]-2-hydroxy-2-phenylethan-1-one], in assay [1], the activation at 1.54 µM is 75 to 250%, the AC50 was 1 to 40 µM and the Emax was in the range of 75 to 250%. Further, in assay [2], the activation at 1.54 µM was in the range of 75 to 250%, the AC50 lay within 1 to 40 µM and the Emax was 75 to 250%. Moreover, in assay [3], the activation at 1.54 µM lay in the range of 75 to 250%, the half-maximal activity concentration (AC50) was 1 to 40 µM and the Emax lay in the range of 75 to 250%.
Regarding `NS(=O)(=O)c1cccc(S(=O)(=O)N2CC3=C(CN(C(=O)[C@H](O)c4ccccc4)C3)C2)c1` [Example 17-1, 3-[5-[(2R)-2-hydroxy-2-phenylacetyl]-1H,2H,3H,4H,5H,6H-pyrrolo[3,4-c]pyrrole-2-sulfonyl]benzene-1-sulfonamide], in assay [1], the activation at 1.54 µM was in the range of 75 to 250%, the AC50 lay in the range of 1 to 40 µM and the Emax was in the range of 75 to 250%. Further, in assay [2], the activation at 1.54 µM lay in the range of 75 to 250%, the AC50 fell in the range of 1 to 40 µM and the Emax lay in the range of 75 to 250%. Also, in assay [3], the activation at 1.54 µM fell in the range of 75 to 250%, the concentration at half-maximal activity (AC50) was 1 to 40 µM and the Emax lay in the range of 75 to 250%.
For the compound `O=C([C@H](O)c1ccccc1)N1CC2=C(C1)CN(S(=O)(=O)c1ccc(F)c(F)c1)C2` [Example 18-53, (2R)-1-[5-(3,4-difluorobenzenesulfonyl)-1H,2H,3H,4H,5H,6H-pyrrolo[3,4-c]pyrrol-2-yl]-2-hydroxy-2-phenylethan-1-one], in assay [1], the activation at 1.54 µM is 75 to 250%, the concentration at half-maximal activity (AC50) lay in the range of 1 to 40 µM and the Emax is 75 to 250%. In assay [2], the activation at 1.54 µM was 75 to 250%, the AC50 is 0.1 to 1 µM and the Emax was in the range of 75 to 250%. In addition, in assay [3], the activation at 1.54 µM fell in the range of 75 to 250%, the concentration at half-maximal activity (AC50) lay in the range of 0.1 to 1 µM and the Emax was in the range of 75 to 250%.
Consider `O=C(NCc1ccc(F)cc1)N1CC2=C(C1)CN(S(=O)(=O)c1ccc(C(F)(F)F)nc1)C2` [Example 21-39, N-[(4-fluorophenyl)methyl]-5-{[6-(trifluoromethyl)pyridin-3-yl]sulfonyl}-1H,2H,3H,4H,5H,6H-pyrrolo[3,4-c]pyrrole-2-carboxamide], for which, in assay [1], the activation at 1.54 µM was in the range of 75 to 250%, the half-maximal activity concentration (AC50) was in the range of 1 to 40 µM and the Emax was in the range of 75 to 250%. For the same compound, in assay [2], the activation at 1.54 µM lay in the range of 75 to 250%, the half-maximal activity concentration (AC50) lay within 1 to 40 µM and the Emax fell in the range of 75 to 250%. Further, in assay [3], the activation at 1.54 µM lay within 75 to 250%, the AC50 lay in the range of 1 to 40 µM and the Emax fell in the range of 75 to 250%.
For the compound `O=C([C@H](O)c1ccccc1)N1CC2=C(C1)CN(S(=O)(=O)c1cccnc1C(F)(F)F)C2` [Example 4-2, (R)-2-hydroxy-2-phenyl-1-(5-(2-(trifluoromethyl)pyridin-3-ylsulfonyl)-4,5-dihydropyrrolo[3,4-c]pyrrol-2(1H,3H,4H)-yl)ethanone], in assay [1], the activation at 1.54 µM was 75 to 250%, the concentration at half-maximal activity (AC50) lay within 1 to 40 µM and the Emax lay within 75 to 250%. Moreover, in assay [2], the activation at 1.54 µM is 75 to 250%, the AC50 lay within 1 to 40 µM and the Emax lay within 75 to 250%. Moreover, in assay [3], the activation at 1.54 µM lay within 75 to 250%, the concentration at half-maximal activity (AC50) lay in the range of 1 to 40 µM and the Emax fell in the range of 75 to 250%.
As to `O=C([C@H](O)c1ccc2c(c1)CNCC2)N1CC2=C(C1)CN(S(=O)(=O)c1ccc(OC(F)F)cc1)C2` (single isomer, unassigned) [Example 11-2], in assay [1], the activation at 1.54 µM was 75 to 250%, the AC50 lay within 0.1 to 1 µM and the Emax lay in the range of 75 to 250%. For the same compound, in assay [2], the activation at 1.54 µM lay in the range of 250 to 50000%, the half-maximal activity concentration (AC50) is at most 0.1 µM and the Emax fell in the range of 250 to 500%. Besides, in assay [3], the activation at 1.54 µM lay in the range of 75 to 250%, the concentration at half-maximal activity (AC50) was at most 0.1 µM and the Emax is 250 to 500%.
